Results taken from article PMC7031696 (Cell chemical biology, 2019).
Like-named read-outs stand apart in the source and are kept apart here.

Key:
[1] = test system: Plasmodium falciparum 3D7-A10 parasites; test: Stage specificity assay (8-h exposure of synchronized stages, IC50^8h); type: cell-based; settings: for IC50: Plasmodium falciparum
[2] = test system: asynchronous 3D7-A10 parasite cultures; test: Standard 72-h exposure asexual blood stage susceptibility assay (IC50^72h); type: cell-based, Plasmodium falciparum; settings: Plasmodium falciparum, 3D7, 72 h, read-out: Overall (72hr assay) Mean IC50 (IC50^72h)
[3] = test system: 3D7-MR4 trophozoite parasite-infected RBCs; test: Metabolomic profiling (hydrophilic metabolite changes, UHPLC-MS); type: cell-based, Plasmodium falciparum

Cl.c1ccc2c(NCCCCCCNc3c4c(nc5ccccc35)CCCC4)c3c(nc2c1)CCCC3 [MMV019555]
Ratio lowest IC50 8hr/IC50 72hr ([1]; 3D7-A10): 2.4
IC50 ([1]; 3D7, read-out: Early rings Mean IC50 (IC50^8h)): 755 nM
IC50 ([1]; 3D7, read-out: Early trophozoites Mean IC50 (IC50^8h)): 81.4 nM
IC50 ([1]; 3D7, read-out: Late rings Mean IC50 (IC50^8h)): 788 nM
IC50 ([1]; 3D7, read-out: Late trophozoites Mean IC50 (IC50^8h)): 110 nM
IC50 ([1]; 3D7, read-out: Schizonts Mean IC50 (IC50^8h)): 349 nM
Stage of peak activity (Figure 6) ([1]; period when the parasite was most susceptible (lowest IC50^8h)): trophozoites
Peak Activity (Table S1) ([1]; stage(s) with the lowest IC50^8h): Trophs
IC50 [2]: 33.3 nM
peptide levels (hemoglobin catabolism signature) ([3]; 10 × IC50^72h, 2.5 hr, trophozoites): decreased peptide levels
Log2(fold changes) 3-phosphoglycerate ([3]; metabolite 3-phosphoglycerate, log2 fold change): -0.7704
Log2(fold changes) 4-Pyridoxic acid ([3]; metabolite 4-Pyridoxic acid, log2 fold change): -0.0064
Log2(fold changes) 4-aminobutyrate ([3]; metabolite 4-aminobutyrate, log2 fold change): -0.0746
Log2(fold changes) 4-phosphopantetheine ([3]; metabolite 4-phosphopantetheine, log2 fold change): 0.0000
Log2(fold changes) 4-phosphopantothenate ([3]; metabolite 4-phosphopantothenate, log2 fold change): -0.0563
Log2(fold changes) 5-aminopentanoic acid ([3]; metabolite 5-aminopentanoic acid, log2 fold change): 0.0000
Log2(fold changes) 5-methyl-THF ([3]; metabolite 5-methyl-THF, log2 fold change): 0.0000
Log2(fold changes) 5-phosphoribosyl-1-pyrophosphate ([3]; metabolite 5-phosphoribosyl-1-pyrophosphate, log2 fold change): 0.0000
Log2(fold changes) 6-phospho-D-gluconate ([3]; metabolite 6-phospho-D-gluconate, log2 fold change): -0.1925
Log2(fold change) HVDD ([3]; metabolite HVDD): -3.3896
Log2(fold change) Hydroxyisocaproic acid ([3]; metabolite Hydroxyisocaproic acid): 0.0000
Log2(fold change) IDP ([3]; metabolite IDP): 0.0000
Log2(fold change) IMP ([3]; metabolite IMP): 0.2158
Log2(fold change) Inositol ([3]; metabolite Inositol): 0.0000
Log2(fold change) Isopentyl-PP ([3]; metabolite Isopentyl-PP): 0.0000
Log2(fold change) L-arginino-succinate ([3]; metabolite L-arginino-succinate): 2.1877
Log2(fold change) LD ([3]; metabolite LD): -0.1309
Log2(fold change) Myristoyl/tetradecanoyl-CoA ([3]; metabolite Myristoyl/tetradecanoyl-CoA): 0.0000
Log2(fold change) N-Acetyl-L-alanine ([3]; metabolite N-Acetyl-L-alanine): -0.6973
Log2(fold change) N-acetyl-L-ornithine ([3]; metabolite N-acetyl-L-ornithine): -2.1230
Log2(fold change) N-acetyl-glucosamine-1/6-phosphate ([3]; metabolite N-acetyl-glucosamine-1/6-phosphate): -0.2838
Log2(fold change) N-acetyl-glutamate ([3]; metabolite N-acetyl-glutamate): 0.3598
Log2(fold change) N-acetyl-glutamine ([3]; metabolite N-acetyl-glutamine): -3.0977
Log2(fold change) N-carbamoyl-L-aspartate ([3]; metabolite N-carbamoyl-L-aspartate): -1.7500
Log2(fold change) NAD+ ([3]; metabolite NAD+): -0.0354
Log2(fold change) NADH ([3]; metabolite NADH): 0.0000
Log2(fold change) NADP+ ([3]; metabolite NADP+): 0.1571
Log2(fold change) NADPH ([3]; metabolite NADPH): 0.0000
Log2(fold change) O-acetyl-L-serine ([3]; metabolite O-acetyl-L-serine): 0.0000
Log2(fold change) Octoluse 8/1P ([3]; metabolite Octoluse 8/1P): 0.0000
Log2(fold change) Octoluse Bisphosphate ([3]; metabolite Octoluse Bisphosphate): 0.2948
Log2(fold change) PD ([3]; metabolite PD): -3.7912
Log2(fold change) PE ([3]; metabolite PE): -2.1499
Log2(fold change) PEE ([3]; metabolite PEE): -2.7511
Log2(fold change) PEEK ([3]; metabolite PEEK): -0.8070
Log2(fold change) PVNF ([3]; metabolite PVNF): -5.1804
Log2(fold change) Pyroglutamic acid ([3]; metabolite Pyroglutamic acid): 0.0000
Log2(fold change) Pyrophosphate ([3]; metabolite Pyrophosphate): 0.0000
Log2(fold change) Ribose-5-phosphate ([3]; metabolite Ribose-5-phosphate): 0.0000
Log2(fold change) S-adenosyl-L-homocysteine ([3]; metabolite S-adenosyl-L-homocysteine): -0.6013
Log2(fold change) S-adenosyl-L-methioninamine ([3]; metabolite S-adenosyl-L-methioninamine): 0.0000
Log2(fold change) S-adenosyl-L-methionine ([3]; metabolite S-adenosyl-L-methionine): 0.0000
Log2(fold change) S-methyl-5'-thioadenosine ([3]; metabolite S-methyl-5'-thioadenosine): 0.0000
Log2(fold change) SD ([3]; metabolite SD): -1.1672
Log2(fold change) SDL ([3]; metabolite SDL): -3.6117
Log2(fold change) SID ([3]; metabolite SID): -6.9124
Log2(fold change) Sedoheptulose bisphosphate ([3]; metabolite Sedoheptulose bisphosphate): 0.7315
Log2(fold change) Thiamine pyrophosphate ([3]; metabolite Thiamine pyrophosphate): 0.0000
Log2(fold changes) UDP-D-glucose ([3]; metabolite UDP-D-glucose, log2 fold change): 0.2602
Log2(fold changes) UDP-D-glucuronate ([3]; metabolite UDP-D-glucuronate, log2 fold change): 0.1434
Log2(fold changes) UDP-N-acetyl-glucosamine ([3]; metabolite UDP-N-acetyl-glucosamine, log2 fold change): 0.1146
Log2(fold changes) UDP ([3]; metabolite UDP, log2 fold change): 0.8739
Log2(fold changes) UMP ([3]; metabolite UMP, log2 fold change): -0.0547
Log2(fold changes) UTP ([3]; metabolite UTP, log2 fold change): -0.1611
Log2(fold change) hydroxyphenylpyruvate ([3]; metabolite hydroxyphenylpyruvate): 0.0000
Log2(fold change) hydroxyproline/Aminolevulinate ([3]; metabolite hydroxyproline/Aminolevulinate): 0.0631
Log2(fold change) hypoxanthine ([3]; metabolite hypoxanthine): 0.0000
Log2(fold change) indole ([3]; metabolite indole): 0.0000
Log2(fold change) inosine ([3]; metabolite inosine): -0.4951
Log2(fold change) isoleucine ([3]; metabolite isoleucine): 0.1119
Log2(fold change) lactate ([3]; metabolite lactate): 0.0000
Log2(fold change) leucine ([3]; metabolite leucine): -0.0578
Log2(fold change) lysine ([3]; metabolite lysine): 0.0000
Log2(fold change) malate ([3]; metabolite malate): -0.8281
Log2(fold change) maleic acid ([3]; metabolite maleic acid): -0.8184
Log2(fold change) methionine ([3]; metabolite methionine): 0.4693
Log2(fold change) myo-inositol ([3]; metabolite myo-inositol): 0.0000
Log2(fold change) nicotinamide mononucleotide ([3]; metabolite nicotinamide mononucleotide): 0.0000
Log2(fold change) nicotinate ([3]; metabolite nicotinate): -0.1129
Log2(fold change) ornithine ([3]; metabolite ornithine): 0.0000
Log2(fold change) orotate ([3]; metabolite orotate): -0.7791
Log2(fold change) orotidine-5'-phosphate ([3]; metabolite orotidine-5'-phosphate): -1.4071
Log2(fold change) oxaloacetate ([3]; metabolite oxaloacetate): 0.0000
Log2(fold change) p-aminobenzoate ([3]; metabolite p-aminobenzoate): 0.0000
Log2(fold change) p-hydroxybenzoate ([3]; metabolite p-hydroxybenzoate): 0.0000
Log2(fold change) pantothenate ([3]; metabolite pantothenate): 0.0969
Log2(fold change) phenylalanine ([3]; metabolite phenylalanine): -0.1076
Log2(fold change) phenylpyruvate ([3]; metabolite phenylpyruvate): 0.0000
Log2(fold change) phosphoenolpyruvate ([3]; metabolite phosphoenolpyruvate): -0.6196
Log2(fold change) prephenate ([3]; metabolite prephenate): 0.0000
Log2(fold change) proline ([3]; metabolite proline): -0.3102
Log2(fold change) pyridoxine ([3]; metabolite pyridoxine): 0.0000
Log2(fold change) pyruvate ([3]; metabolite pyruvate): -0.3424
Log2(fold change) riboflavin ([3]; metabolite riboflavin): 0.1087
Log2(fold change) ribose ([3]; metabolite ribose): 0.0000
Log2(fold change) ribose-phosphate ([3]; metabolite ribose-phosphate): -0.8253
Log2(fold change) ribulose-5-phosphate ([3]; metabolite ribulose-5-phosphate): -0.7229
Log2(fold change) serine ([3]; metabolite serine): 0.0219
Log2(fold change) sn-glycerol-3-phosphate ([3]; metabolite sn-glycerol-3-phosphate): -0.8632
Log2(fold change) succinate/Methylmalonic acid ([3]; metabolite succinate/Methylmalonic acid): 0.2169
Log2(fold change) succinyl-CoA/methylmalonyl-CoA ([3]; metabolite succinyl-CoA/methylmalonyl-CoA): 0.0000
Log2(fold change) taurine ([3]; metabolite taurine): 0.0000
Log2(fold change) thiamine ([3]; metabolite thiamine): -0.8248
Log2(fold change) threonine/homoserine ([3]; metabolite threonine/homoserine): -0.3688
Log2(fold change) thymidine ([3]; metabolite thymidine): 0.0000
Log2(fold changes) thymine ([3]; metabolite thymine, log2 fold change): 0.0000
Log2(fold changes) trehalose-6-Phosphate ([3]; metabolite trehalose-6-Phosphate, log2 fold change): 0.0000
Log2(fold changes) tryptophan ([3]; metabolite tryptophan, log2 fold change): -0.0448
Log2(fold changes) tyrosine ([3]; metabolite tyrosine, log2 fold change): 0.2358
Log2(fold changes) uridine ([3]; metabolite uridine, log2 fold change): 0.0000
